Experimental data: ChEMBL document CHEMBL1909046, “DrugMatrix in vitro pharmacology data”

Key:
[1] = target: T1, Cysteinyl leukotriene receptor 1 (Homo sapiens, UniProt Q9Y271); assay type: cell membranes, Membrane; conditions: cho-k1; note: in other assays of this panel Not Active means under 50% inhibition at 10 µM
T1 sequence (Q9Y271 whole entry): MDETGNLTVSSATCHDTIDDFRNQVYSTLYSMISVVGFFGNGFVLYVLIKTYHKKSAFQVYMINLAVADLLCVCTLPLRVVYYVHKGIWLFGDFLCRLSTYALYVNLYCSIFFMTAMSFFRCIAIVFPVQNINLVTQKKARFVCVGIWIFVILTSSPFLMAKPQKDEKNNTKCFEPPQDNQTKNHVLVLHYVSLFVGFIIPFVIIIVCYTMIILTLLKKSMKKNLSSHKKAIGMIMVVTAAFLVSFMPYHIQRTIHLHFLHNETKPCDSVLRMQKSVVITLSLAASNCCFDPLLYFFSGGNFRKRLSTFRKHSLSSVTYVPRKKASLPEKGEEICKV

[2] = target: Beta-1 adrenergic receptor (Homo sapiens, UniProt P08588); test: DRUGMATRIX: Adrenergic beta1 radioligand binding (ligand: [125I] Cyanopindolol); assay type: cell membranes, CHO-K1, Membrane; conditions: cho-k1; Not Active = under 50% inhibition at 10 µM
[3] = DRUGMATRIX: Phosphodiesterase PDE3 enzyme inhibition (substrate: [3H]cAMP + cAMP); assay type: tissue-based, Homo sapiens; conditions: platelet; Not Active = under 50% inhibition at 10 µM
[4] = target: T2, Receptor-type tyrosine-protein phosphatase C (Homo sapiens, UniProt P08575); design: species or system Escherichia coli;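 note: inhibition of CD45 enzyme activity measured using DiFMUP as substrate; in other assays of this panel Not Active means under 50% inhibition at 10 µM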
T2 sequence (P08575 whole entry): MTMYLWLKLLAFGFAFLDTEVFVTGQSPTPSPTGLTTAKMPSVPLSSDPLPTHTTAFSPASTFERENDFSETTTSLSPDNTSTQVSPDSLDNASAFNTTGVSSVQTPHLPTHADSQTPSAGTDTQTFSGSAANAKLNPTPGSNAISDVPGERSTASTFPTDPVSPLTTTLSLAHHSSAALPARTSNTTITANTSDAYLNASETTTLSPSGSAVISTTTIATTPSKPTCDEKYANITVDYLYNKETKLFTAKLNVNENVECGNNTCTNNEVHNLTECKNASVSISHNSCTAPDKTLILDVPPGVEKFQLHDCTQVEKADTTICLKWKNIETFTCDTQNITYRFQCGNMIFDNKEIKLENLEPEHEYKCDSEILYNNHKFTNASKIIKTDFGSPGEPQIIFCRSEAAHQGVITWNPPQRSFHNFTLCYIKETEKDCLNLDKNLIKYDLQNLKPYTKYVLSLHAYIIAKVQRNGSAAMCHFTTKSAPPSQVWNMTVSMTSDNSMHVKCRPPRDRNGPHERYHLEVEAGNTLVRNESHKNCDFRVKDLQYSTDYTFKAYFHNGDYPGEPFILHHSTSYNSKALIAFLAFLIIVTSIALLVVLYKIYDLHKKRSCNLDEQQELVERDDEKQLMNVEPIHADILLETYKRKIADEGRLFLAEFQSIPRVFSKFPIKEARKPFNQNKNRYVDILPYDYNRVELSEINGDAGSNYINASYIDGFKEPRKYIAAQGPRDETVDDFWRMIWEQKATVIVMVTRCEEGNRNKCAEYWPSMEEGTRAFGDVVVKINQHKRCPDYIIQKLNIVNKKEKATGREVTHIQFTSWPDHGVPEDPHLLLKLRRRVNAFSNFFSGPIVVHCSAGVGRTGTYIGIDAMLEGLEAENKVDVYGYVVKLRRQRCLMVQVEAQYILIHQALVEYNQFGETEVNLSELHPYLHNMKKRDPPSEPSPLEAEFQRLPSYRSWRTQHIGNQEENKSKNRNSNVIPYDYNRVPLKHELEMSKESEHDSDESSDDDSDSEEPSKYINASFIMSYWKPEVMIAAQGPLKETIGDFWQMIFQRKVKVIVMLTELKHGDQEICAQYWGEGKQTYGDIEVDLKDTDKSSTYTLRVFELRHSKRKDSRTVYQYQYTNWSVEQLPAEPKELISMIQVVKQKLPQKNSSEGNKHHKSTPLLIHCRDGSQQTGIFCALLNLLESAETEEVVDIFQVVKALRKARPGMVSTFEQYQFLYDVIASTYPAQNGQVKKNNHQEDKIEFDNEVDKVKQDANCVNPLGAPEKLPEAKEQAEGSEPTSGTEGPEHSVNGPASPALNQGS

[5] = target: T3, Alpha-1D adrenergic receptor (Homo sapiens, UniProt P25100); assay type: cell membranes, HEK293, Membrane; conditions: hek293; note: in other assays of this panel Not Active means under 50% inhibition at 10 µM
T3 sequence (P25100 whole entry): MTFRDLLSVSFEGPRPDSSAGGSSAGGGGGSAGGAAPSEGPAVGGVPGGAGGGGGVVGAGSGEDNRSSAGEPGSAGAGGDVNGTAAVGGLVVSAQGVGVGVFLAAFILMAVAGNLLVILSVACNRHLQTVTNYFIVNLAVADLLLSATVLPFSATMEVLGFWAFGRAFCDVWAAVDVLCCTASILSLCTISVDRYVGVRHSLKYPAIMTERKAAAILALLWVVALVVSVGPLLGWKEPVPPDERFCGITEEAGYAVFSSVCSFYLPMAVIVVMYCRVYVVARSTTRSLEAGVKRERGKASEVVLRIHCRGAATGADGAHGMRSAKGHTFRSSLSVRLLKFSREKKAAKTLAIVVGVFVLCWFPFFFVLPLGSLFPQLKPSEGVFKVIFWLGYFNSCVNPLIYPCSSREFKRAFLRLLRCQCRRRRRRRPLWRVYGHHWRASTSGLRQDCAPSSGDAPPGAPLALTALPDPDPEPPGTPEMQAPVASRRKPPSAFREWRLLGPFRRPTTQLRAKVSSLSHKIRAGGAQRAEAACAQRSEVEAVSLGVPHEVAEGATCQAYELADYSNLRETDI

[6] = target: T4, Thromboxane-A synthase (Homo sapiens, UniProt P24557); test: biochemical; assay type: tissue-based, Platelet; conditions: platelet;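 note: enzyme inhibition assay with PGH2 supplied as substrate; in other assays of this panel Not Active means under 50% inhibition at 10 µM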
T4 sequence (P24557 whole entry): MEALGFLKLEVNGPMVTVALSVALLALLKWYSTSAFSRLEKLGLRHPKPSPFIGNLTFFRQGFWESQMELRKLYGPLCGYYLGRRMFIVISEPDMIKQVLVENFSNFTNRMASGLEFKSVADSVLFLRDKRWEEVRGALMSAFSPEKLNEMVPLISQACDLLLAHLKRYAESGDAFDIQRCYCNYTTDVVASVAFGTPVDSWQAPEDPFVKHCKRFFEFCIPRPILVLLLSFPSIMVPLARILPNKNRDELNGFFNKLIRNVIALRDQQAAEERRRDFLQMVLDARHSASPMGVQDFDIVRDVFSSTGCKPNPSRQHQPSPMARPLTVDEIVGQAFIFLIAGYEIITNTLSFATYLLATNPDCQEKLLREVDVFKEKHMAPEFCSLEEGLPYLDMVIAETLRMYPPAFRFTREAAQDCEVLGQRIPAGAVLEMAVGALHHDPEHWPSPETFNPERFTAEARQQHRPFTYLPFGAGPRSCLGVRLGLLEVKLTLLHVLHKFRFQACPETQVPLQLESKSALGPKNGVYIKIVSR

Chain of Beta-1 adrenergic receptor (P08588 whole entry): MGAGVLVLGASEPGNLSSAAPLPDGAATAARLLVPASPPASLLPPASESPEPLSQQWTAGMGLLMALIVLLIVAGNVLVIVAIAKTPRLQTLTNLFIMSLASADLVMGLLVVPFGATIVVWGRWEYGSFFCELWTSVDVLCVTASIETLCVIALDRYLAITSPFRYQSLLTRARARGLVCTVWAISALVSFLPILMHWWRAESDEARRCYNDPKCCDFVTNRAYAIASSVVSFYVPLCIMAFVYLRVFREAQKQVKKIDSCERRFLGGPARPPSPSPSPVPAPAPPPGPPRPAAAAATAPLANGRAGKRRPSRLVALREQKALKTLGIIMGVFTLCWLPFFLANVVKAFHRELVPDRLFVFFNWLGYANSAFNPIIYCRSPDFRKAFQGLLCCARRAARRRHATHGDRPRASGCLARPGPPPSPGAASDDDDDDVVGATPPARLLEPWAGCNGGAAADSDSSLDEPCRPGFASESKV

INSULIN HUMAN
Not Active: IC50 [1] | Ki [1] | IC50 [2] | Ki [2] | IC50 [3] | Ki [3] | IC50 [4] | Ki [4] | IC50 [5] | Ki [5] | IC50 [6] | Ki [6]

POLYVINYL ALCOHOL
Not Active: IC50 [1] | Ki [1] | IC50 [2] | Ki [2] | IC50 [3] | Ki [3] | IC50 [4] | Ki [4] | IC50 [5] | Ki [5] | IC50 [6] | Ki [6]
